The values that follow come from US20090018134A1, “Compounds - 945” (AstraZeneca AB, priority 2007, published 2009).

T1 sequence (P42345 1362-2549): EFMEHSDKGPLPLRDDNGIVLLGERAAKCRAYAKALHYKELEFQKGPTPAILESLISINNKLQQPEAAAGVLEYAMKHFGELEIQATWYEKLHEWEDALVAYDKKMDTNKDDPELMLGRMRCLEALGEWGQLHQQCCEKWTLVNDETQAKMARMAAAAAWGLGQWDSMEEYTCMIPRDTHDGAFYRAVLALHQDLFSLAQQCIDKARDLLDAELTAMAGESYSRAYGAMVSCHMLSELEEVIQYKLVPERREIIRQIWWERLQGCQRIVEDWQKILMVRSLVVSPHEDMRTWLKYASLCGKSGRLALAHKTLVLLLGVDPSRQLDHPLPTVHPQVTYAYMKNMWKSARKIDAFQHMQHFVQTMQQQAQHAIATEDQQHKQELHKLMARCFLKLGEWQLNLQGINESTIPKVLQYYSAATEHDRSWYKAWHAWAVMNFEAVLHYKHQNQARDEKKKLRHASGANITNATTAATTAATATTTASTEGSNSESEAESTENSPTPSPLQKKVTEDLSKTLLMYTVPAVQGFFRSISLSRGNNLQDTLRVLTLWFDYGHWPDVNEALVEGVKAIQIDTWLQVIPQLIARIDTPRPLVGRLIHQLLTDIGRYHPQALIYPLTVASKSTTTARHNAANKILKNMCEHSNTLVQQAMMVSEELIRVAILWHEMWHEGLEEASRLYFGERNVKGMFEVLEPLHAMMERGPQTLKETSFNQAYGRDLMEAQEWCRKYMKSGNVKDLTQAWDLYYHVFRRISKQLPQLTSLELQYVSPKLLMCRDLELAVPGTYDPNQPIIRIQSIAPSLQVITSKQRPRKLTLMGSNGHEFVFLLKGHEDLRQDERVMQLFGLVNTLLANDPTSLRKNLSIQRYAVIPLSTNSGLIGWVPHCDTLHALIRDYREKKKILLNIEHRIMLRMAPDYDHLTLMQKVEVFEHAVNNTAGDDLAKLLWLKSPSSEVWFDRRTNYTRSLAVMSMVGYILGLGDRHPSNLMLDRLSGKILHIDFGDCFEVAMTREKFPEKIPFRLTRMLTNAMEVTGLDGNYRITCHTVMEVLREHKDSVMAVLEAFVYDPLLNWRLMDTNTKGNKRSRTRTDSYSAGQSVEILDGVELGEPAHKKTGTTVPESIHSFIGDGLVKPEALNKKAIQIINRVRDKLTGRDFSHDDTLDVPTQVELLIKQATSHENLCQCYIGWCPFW

The first experiment addresses T1, mTOR (Homo sapiens, UniProt P42345).
T1 construct: FLAG; made in house
The experiment in a line: In Vitro mTOR Kinase Assay (Echo), Test (a)(ii). The experiment is classed as biochemical. To be noted: read-out: mTOR Kinase Assay (Echo). Summed up: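 FLAG-tagged human mTOR truncation (residues 1362-2549) expressed in HEK293 cells and FLAG-purified. Compounds dispensed acoustically, reaction 2 h at room temperature, stopped with EDTA. Phosphorylation of biotinylated peptide detected by AlphaScreen with anti-p70 S6K (T389) antibody overnight; IC50 reported.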
`C[C@H]1COCCN1c1cc(C2(S(=O)(=O)c3ccccc3C(F)(F)F)CC2)nc(-c2ccc(NC(=O)NCCO)cc2)n1` [Example 10g]: the IC50 stood at 1.56 nM. Take `C[C@H]1COCCN1c1cc(C2(S(C)(=O)=O)CCC2)nc(-c2ccc(NC(=O)Nc3ccccn3)cc2)n1` [Example 5l, 1-[4-[4-[(3S)-3-methylmorpholin-4-yl]-6-(1-methylsulfonylcyclobutyl)pyrimidin-2-yl]phenyl]-3-pyridin-2-yl-urea]: the IC50 was 0.248 nM. Turning to `CC(C)NC(=O)Nc1ccc(-c2nc(N3CCOC[C@@H]3C)cc(C3(S(C)(=O)=O)CC3)n2)cc1` [Example 2j, 1-[4-[4-[(3S)-3-methylmorpholin-4-yl]-6-(1-methylsulfonylcyclopropyl)pyrimidin-2-yl]phenyl]-3-propan-2-yl-urea], the IC50 came out at 12 nM. On to `CC(C)S(=O)(=O)C1(c2cc(N3CCOC[C@@H]3C)nc(-c3ccc(NC(=O)NC4CC4)cc3)n2)CC1` [Example 7d, 3-cyclopropyl-1-[4-[4-[(3S)-3-methylmorpholin-4-yl]-6-(1-propan-2-ylsulfonylcyclopropyl)pyrimidin-2-yl]phenyl]urea], for which the IC50 was found to be 3.8 nM.

The same experiment, now with this note: table of enzyme assay Test (a)(ii); read-out: Test (a)(ii) IC50.
`C[C@H]1COCCN1c1cc(C2(S(C)(=O)=O)CC2)nc(-c2ccc(NC(=O)NCCF)cc2)n1` [Example 64aa, 3-(2-fluoroethyl)-1-[4-[4-[(3S)-3-methylmorpholin-4-yl]-6-(1-methylsulfonylcyclopropyl)pyrimi-din-2-yl]phenyl]urea]: the IC50 was 3.88 nM.

For `CS(=O)(=O)C1(c2cc(N3CCOCC3)nc(-c3ccc(NC(=O)NCc4ncc[nH]4)cc3)n2)CC1` [Example 36t, 3-(1H-imidazol-2-ylmethyl)-1-[4-[4-(1-methylsulfonylcyclopropyl)-6-morpholin-4-ylpyrimidin-2-yl]phenyl]urea], the IC50 was determined as 194 nM. Consider `C[C@H]1COCCN1c1cc(C2(S(=O)(=O)C(C)(C)C)CC2)nc(-c2ccc(NC(=O)Nc3ccccn3)cc2)n1` [Example 18b, 1-[4-[4-(1-tert-butylsulfonylcyclopropyl)-6-[(3S)-3-methylmorpholin-4-yl]pyrimidin-2-yl]phenyl]-3-pyridin-2-ylurea], for which the IC50 was 14.7 nM. Take `C[C@H]1COCCN1c1cc(C2(S(=O)(=O)C3CCCCC3)CC2)nc(-c2ccc(NC(=O)Nc3cnn(C)c3)cc2)n1` [Example 26h, 1-[4-[4-(1-cyclohexylsulfonylcyclopropyl)-6-[(3S)-3-methylmorpholin-4-yl]pyrimidin-2-yl]phenyl]-3-(1-methylpyrazol-4-yl)urea]: the IC50 came to 4 nM. For `C[C@H]1COCCN1c1cc(C2(S(=O)(=O)c3ccncc3)CCC2)nc(-c2ccc(NC(=O)NC(C)(C)CO)cc2)n1` [Example 83c, 3-(1-hydroxy-2-methylpropan-2-yl)-1-[4-[4-[(3S)-3-methylmorpholin-4-yl]-6-(1-pyridin-4-ylsulfonylcyclobutyl)pyrimidin-2-yl]phenyl]urea], the IC50 came out at 12.4 nM. Consider `CNC(=O)Nc1ccc(-c2nc(N3CCOC[C@@H]3C)cc(C3(S(=O)(=O)c4ccc(NC)cc4F)CC3)n2)cc1` [Example 57, 1-[4-[4-[1-(2-Fluoro-4-methylaminophenyl)sulfonylcyclopropyl]-6-[(3S)-3-methylmorpholin-4-yl]pyrimidin-2-yl]phenyl]-3-methylurea], for which the IC50 stood at 11.9 nM. For the molecule `C[C@H]1COCCN1c1cc(C2(S(=O)(=O)c3ccc(C(=O)N(C)C)cn3)CC2)nc(-c2ccc(NC(=O)NC3CC3)cc2)n1` [Example 49a], the IC50 was determined as 2.67 nM.

With `CCS(=O)(=O)C1(c2cc(N3CCOC[C@@H]3C)nc(-c3ccc(NC(=O)N[C@@H](C)CO)cc3)n2)CCC1` [Example 87e, 1-[4-[4-(1-ethylsulfonylcyclobutyl)-6-[(3S)-3-methylmorpholin-4-yl]pyrimidin-2-yl]phenyl]-3-[(2S)-1-hydroxypropan-2-yl]urea], the IC50 was found to be 10.3 nM.

Turning to `C[C@H]1COCCN1c1cc(C2(S(C)(=O)=O)CCC2)nc(-c2ccc(NC(=O)Nc3ccccn3)cc2)n1` [Example 5l, 1-[4-[4-[(3S)-3-methylmorpholin-4-yl]-6-(1-methylsulfonylcyclobutyl)pyrimidin-2-yl]phenyl]-3-pyridin-2-yl-urea], the IC50 was 0.237 nM. Still for that read-out and setting: the result for `C[C@H]1COCCN1c1cc(C2(S(=O)(=O)c3ccccc3)CC2)nc(-c2ccc(NC(=O)N(C)C3CC3)cc2)n1` [Example 36dr, 3-[4-[4-[1-(benzenesulfonyl)cyclopropyl]-6-[(3S)-3-methylmorpholin-4-yl]pyrimidin-2-yl]phenyl]-1-cyclopropyl-1-methylurea] reads 294 nM. Regarding `C[C@H]1COCCN1c1cc(C2(S(=O)(=O)CCCO)CCOCC2)nc(-c2ccc(NC(=O)Nc3cnn(C)c3)cc2)n1` [Example 36ch, 1-[4-[4-[4-(3-hydroxypropylsulfonyl)oxan-4-yl]-6-[(3S)-3-methylmorpholin-4-yl]pyrimidin-2-yl]phenyl]-3-(1-methylpyrazol-4-yl)urea], the IC50 is 208 nM.

Turning to `C[C@H]1COCCN1c1cc(C2(S(=O)(=O)c3cc(F)ccc3F)CC2)nc(-c2ccc(NC(=O)NCC(F)F)cc2)n1` [Example 60d, 3-(2,2-difluoroethyl)-1-[4-[4-[1-(2,5-difluorophenyl)sulfonylcyclopropyl]-6-[(3S)-3-methylmorpholin-4-yl]pyrimidin-2-yl]phenyl]urea], the IC50 was found to be 18.3 nM. Turning to `CCNC(=O)Nc1ccc(-c2nc(N3[C@H](C)COC[C@@H]3C)cc(C3(S(=O)(=O)c4ccccc4)CC3)n2)cc1` [Example 73, 1-[4-[4-[1-(Benzenesulfonyl)cyclopropyl]-6-[(3R,5S)-3,5-dimethylmorpholin-4-yl]pyrimidin-2-yl]phenyl]-3-ethylurea], the IC50 is 7.44 nM. On to `C[C@H]1COCCN1c1cc(C2(S(=O)(=O)C3CC3)CCCC2)nc(-c2ccc(NC(=O)NC3CC3)cc2)n1` [Example 36j, 3-cyclopropyl-1-[4-[4-(1-cyclopropylsulfonylcyclopentyl)-6-[(3S)-3-methylmorpholin-4-yl]pyrimidin-2-yl]phenyl]urea], for which the IC50 was determined as 18 nM.

As for `O=C(Nc1ccc(-c2nc(N3CCOCC3)cc(C3(S(=O)(=O)C4CC4)CC3)n2)cc1)NC1CC1` [Example 13, 3-Cyclopropyl-1-[4-[4-(1-cyclopropylsulfonylcyclopropyl)-6-morpholin-4-ylpyrimidin-2-yl]phenyl]urea], the IC50 stood at 3.57 nM. Same read-out and setting: under `C[C@H]1COCCN1c1cc(C2(S(=O)(=O)c3ccc(F)cc3F)CC2)nc(-c2ccc(NC(=O)Nc3cnn(C)c3)cc2)n1` [Example 57f, 1-[4-[4-[1-(2,4-difluorophenyl)sulfonylcyclopro-pyl]-6-[(3S)-3-methylmorpholin-4-yl]pyrimidin-2-yl]phenyl]-3-(1-methylpyrazol-4-yl)urea] stands 10.6 nM.

With `C[C@H]1COCCN1c1cc(C2(S(=O)(=O)c3ccc(F)c(F)c3)CC2)nc(-c2ccc(NC(=O)NC3CC3)cc2)n1` [Example 64i, 3-cyclopropyl-1-[4-[4-[1-(3,4-difluorophenyl)sulfonylcyclopro-pyl]-6-[(3S)-3-methylmorpholin-4-yl]pyrimidin-2-yl]phenyl]urea], the IC50 was 1.35 nM.

As for `CNC(=S)Nc1ccc(-c2nc(N3CCOC[C@@H]3C)cc(C3(S(=O)(=O)c4ccc(F)cc4)CC3)n2)cc1` [Example 37s, 1-[4-[4-[1-(4-fluorophenyl)sulfonylcyclopropyl]-6-[(3S)-3-methylmorpholin-4-yl]pyrimidin-2-yl]phenyl]-3-methylthiourea], the IC50 worked out at 7.56 nM. Same read-out and setting: under `CCNC(=O)Nc1ccc(-c2nc(N3CCOC[C@@H]3C)cc(C3(S(=O)(=O)c4ccccc4F)CC3)n2)cc1` [Example 58e, 1-ethyl-3-[4-[4-[1-(2-fluorophenyl)sulfonylcyclopropyl]-6-[(3S)-3-methylmorpholin-4-yl]pyrimidin-2-yl]phenyl]urea] stands 2.56 nM.
